Target: mTOR/GbL/Raptor (mTORC1) (Homo sapiens, UniProt P42345)
Assay: mTOR/GbL/Raptor (mTORC1) ELISA assay
Format: biochemical
Conditions: phosphorylation of 4E-BP1; 0.2 nM mTORC1, 10 μM ATP; read-out: IC50 in this assay (mTORC1 ELISA)
Procedure: The measurement of mTORC1 enzyme activity was performed in an ELISA assay format following the phosphorylation of 4E-BP1 protein. All experiments were performed in the 384-well format. Generally, 0.5 μL DMSO containing varying concentrations of the test Compound was mixed with 15 μL enzyme solution. Kinase reactions were initiated with the addition of 15 μL of substrates-containing solution. The assay conditions were as follows; 0.2 nM mTORC1, 10 μM ATP and 50 nM NHis-tagged 4E-BP1 in 20 mM Hepes, pH 7.2, 1 mM DTT, 50 mM NaCl, 10 mM MnCl2, 0.02 mg/mL BSA, 0.01% CHAPS, 50 mM β-glycerophosphate. Following an incubation of 120 minutes at ambient temperature, 20 μL of the reaction volume was transferred to a Ni-Chelate-coated 384-well plate. The binding step of the 4E-BP1 protein proceeded for 60 minutes, followed by washing 4 times each with 50 μL of Tris-buffered saline solution (TBS). Anti-phospho-4E-BP1 rabbit-IgG (20 μL, 1:5000) in 5% BSA-TBST (0.2% Tween-20 in TBS) was added and further incubated for 60 minutes. Incubation with a secondary HRP-tagged anti-IgG was similarly performed after washing off the primary antibody (4 washes of 50 μL). Following the final wash step with TBST, 20 μL of SuperSignal ELISA Femto (Pierce Biotechnology) was added and the luminescence measured using an EnVision plate reader.

IC50 | Structure (SMILES)
≤ 10 nM | Cc1nc(N)nc(N2CCOc3ccc(-c4cnc5[nH]cnc5c4)cc3C2)c1Cc1ccc(F)cc1 [Example 689, 5-[(4-fluorophenyl)methyl]-4-[7-(3H-imidazo[4,5-b]pyridin-6-yl)-2,3-dihydro-1,4-benzoxazepin-4(5H)-yl]-6-methylpyrimidin-2-amine]
10 to 50 nM | Cc1nc2cc(-c3ccc4c(c3)CN(c3nc(CN(C)C)nc(C)c3C(C)C)CCO4)cnc2[nH]1 [Example 614, N,N-dimethyl-1-{4-methyl-5-(1-methylethyl)-6-[7-(2-methyl-3H-imidazo[4,5-b]pyridin-6-yl)-2,3-dihydro-1,4-benzoxazepin-4(5H)-yl]pyrimidin-2-yl}methanamine]
10 to 50 nM | CC[C@H]1CCc2c(nc(C)nc2N2CCOc3ccc(-c4cnc5nc(NC(=O)OC)[nH]c5c4)cc3C2)C1 [Example 577, methyl (6-{4-[(7S)-7-ethyl-2-methyl-5,6,7,8-tetrahydroquinazolin-4-yl]-2,3,4,5-tetrahydro-1,4-benzoxazepin-7-yl}-1H-imidazo[4,5-b]pyridin-2-yl)carbamate]
≤ 10 nM | COCc1nc2c(c(N3CCOc4ccc(-c5cnc6[nH]c(C)nc6c5)cc4C3)n1)CC(C)(C)CC2 [Example 508, 4-{6,6-dimethyl-2-[(methyloxy)methyl]-5,6,7,8-tetrahydroquinazolin-4-yl}-7-(2-methyl-3H-imidazo[4,5-b]pyridin-6-yl)-2,3,4,5-tetrahydro-1,4-benzoxazepine]
50 to 250 nM | COc1ccc2c(N3CCOc4ccc(-c5cnc6nc[nH]c6c5)cc4C3)nc(C)nc2c1 [Example 542, 7-(1H-imidazo[4,5-b]pyridin-6-yl)-4-[2-methyl-7-(methyloxy)quinazolin-4-yl]-2,3,4,5-tetrahydro-1,4-benzoxazepine]
50 to 250 nM | Cc1nc2cc(-c3ccc4c(c3)CN(c3nc(CN5CCCC5)nc(C)c3C(C)C)CCO4)ccc2[nH]1 [Example 675]
≤ 10 nM | COCCOCc1nc2c(c(N3CCOc4ccc(-c5cnc6nc(C)[nH]c6c5)cc4C3)n1)CC(C)(C)CC2 [Example 495, 4-[6,6-dimethyl-2-({[2-(methyloxy)ethyl]oxy}methyl)-5,6,7,8-tetrahydroquinazolin-4-yl]-7-(2-methyl-1H-imidazo[4,5-b]pyridin-6-yl)-2,3,4,5-tetrahydro-1,4-benzoxazepine]
≤ 10 nM | CCNCc1nc2c(c(N3CCOc4ccc(-c5ccc6nc(C)[nH]c6c5)cc4C3)n1)CC(C)(C)CC2 [Example 589, N-({6,6-dimethyl-4-[7-(2-methyl-1H-benzimidazol-6-yl)-2,3-dihydro-1,4-benzoxazepin-4(5H)-yl]-5,6,7,8-tetrahydroquinazolin-2-yl}methyl)ethanamine]
≤ 10 nM | Cc1nc2ccc(-c3ccc4c(c3)CN(c3nc(CNC5CC5)nc(C)c3Cc3ccc(F)cc3)CCO4)cc2[nH]1 [Example 584, N-({5-[(4-fluorophenyl)methyl]-4-methyl-6-[7-(2-methyl-1H-benzimidazol-6-yl)-2,3-dihydro-1,4-benzoxazepin-4(5H)-yl]pyrimidin-2-yl}methyl)cyclopropanamine]
10 to 50 nM | CC1(C)CCc2ncnc(N3CCOc4ccc(-c5cnc(N)c(S(C)(=O)=O)c5)cc4C3)c2C1 [Example 512, 5-[4-(6,6-dimethyl-5,6,7,8-tetrahydroquinazolin-4-yl)-2,3,4,5-tetrahydro-1,4-benzoxazepin-7-yl]-3-(methylsulfonyl)pyridin-2-amine]
10 to 50 nM | CCC1CCc2nc(C)nc(N3CCOc4ccc(-c5cnc6nc(C)[nH]c6c5)cc4C3)c2C1 (stereo not shown) [Example 482, 4-(6-ethyl-2-methyl-5,6,7,8-tetrahydroquinazolin-4-yl)-7-(2-methyl-1H-imidazo[4,5-b]pyridin-6-yl)-2,3,4,5-tetrahydro-1,4-benzoxazepine]

More lines, now with the values behind:

Structure (SMILES) | IC50
Cc1nc2ccc(-c3ccc4c(c3)CN(c3ncnc5cc(S(C)(=O)=O)ccc35)CCO4)cc2[nH]1 [Example 40, 7-(2-methyl-1H-benzimidazol-6-yl)-4-[7-(methylsulfonyl)quinazolin-4-yl]-2,3,4,5-tetrahydro-1,4-benzoxazepine] | 50 to 250 nM
CC1(C)CCc2ncnc(N3CCOc4ccc(-c5cnc(N)c(S(=O)(=O)N6CC(C)(N)C6)c5)cc4C3)c2C1 [Example 439, 3-[(3-amino-3-methylazetidin-1-yl)sulfonyl]-5-[4-(6,6-dimethyl-5,6,7,8-tetrahydroquinazolin-4-yl)-2,3,4,5-tetrahydro-1,4-benzoxazepin-7-yl]pyridin-2-amine] | ≤ 10 nM
CC1(C)CCc2ncnc(N3CCOc4ccc(-c5cnc6[nH]ncc6c5)cc4C3)c2C1 [Example 263, 4-(6,6-dimethyl-5,6,7,8-tetrahydroquinazolin-4-yl)-7-(1H-pyrazolo[3,4-b]pyridin-5-yl)-2,3,4,5-tetrahydro-1,4-benzoxazepine] | 50 to 250 nM
Cc1nc2ccc(-c3ccc4c(c3)CN(c3cc(-c5ccccc5)nc5ccccc35)CCO4)cc2[nH]1 [Example 100, 7-(2-methyl-1H-benzimidazol-6-yl)-4-(2-phenylquinolin-4-yl)-2,3,4,5-tetrahydro-1,4-benzoxazepine] | 250 to 1000 nM
COc1ccc2c(N3CCOc4ccc(-c5ccc(N)nc5)cc4C3)nc(C)nc2c1 [Example 273, 5-{4-[2-methyl-7-(methyloxy)quinazolin-4-yl]-2,3,4,5-tetrahydro-1,4-benzoxazepin-7-yl}pyridin-2-amine] | 250 to 1000 nM
Cc1nc(N2CCOc3ccc(-c4ccc(-c5ncc[nH]5)cc4)cc3C2)c2ccccc2n1 [Example 251, 7-[4-(1H-imidazol-2-yl)phenyl]-4-(2-methylquinazolin-4-yl)-2,3,4,5-tetrahydro-1,4-benzoxazepine] | 10 to 50 nM
CC1(C)CCc2ncnc(N3CCOc4ccc(-c5cnc(N)c(S(=O)(=O)N6C[C@@H]7C[C@H]6CN7)c5)cc4C3)c2C1 [Example 436, 3-[(1S,4S)-2,5-diazabicyclo[2.2.1]hept-2-ylsulfonyl]-5-[4-(6,6-dimethyl-5,6,7,8-tetrahydroquinazolin-4-yl)-2,3,4,5-tetrahydro-1,4-benzoxazepin-7-yl]pyridin-2-amine] | ≤ 10 nM
CCc1c(C)ncnc1N1CCOc2ccc(-c3cnc4nc(C)[nH]c4c3)cc2C1 [Example 470, 4-(5-ethyl-6-methylpyrimidin-4-yl)-7-(2-methyl-1H-imidazo[4,5-b]pyridin-6-yl)-2,3,4,5-tetrahydro-1,4-benzoxazepine] | 50 to 250 nM
Cc1nc2ccc(-c3ccc4c(c3)CN(c3nc(CN5CC[C@H](F)C5)nc5c3CC(C)(C)CC5)CCO4)cc2[nH]1 [Example 463, 4-(2-{[(3S)-3-fluoropyrrolidin-1-yl]methyl}-6,6-dimethyl-5,6,7,8-tetrahydroquinazolin-4-yl)-7-(2-methyl-1H-benzimidazol-6-yl)-2,3,4,5-tetrahydro-1,4-benzoxazepine] | 50 to 250 nM
CC1(C)CCc2ncnc(N3CCOc4ccc(-c5cnc(N)c(S(=O)(=O)N6CC(O)(CO)C6)c5)cc4C3)c2C1 [Example 314, 1-({2-amino-5-[4-(6,6-dimethyl-5,6,7,8-tetrahydroquinazolin-4-yl)-2,3,4,5-tetrahydro-1,4-benbzoxazepin-7-yl]pyridin-3-yl}sulfonyl)-3-(hydroxymethyl)azetidin-3-ol] | 10 to 50 nM
CCNc1nc2ccc(-c3ccc4c(c3)CN(c3cc(Nc5ccccc5)ncn3)CCO4)cc2[nH]1 [Example 275, N-ethyl-6-{4-[6-(phenylamino)pyrimidin-4-yl]-2,3,4,5-tetrahydro-1,4-benzoxazepin-7-yl}-1H-benzimidazol-2-amine] | 50 to 250 nM
COC(=O)Nc1nc2ccc(-c3ccc4c(c3)CN(c3ncnc5ccccc35)CCO4)cc2[nH]1 [Example 109, methyl [6-(4-quinazolin-4-yl-2,3,4,5-tetrahydro-1,4-benzoxazepin-7-yl)-1H-benzimidazol-2-yl]carbamate] | 250 to 1000 nM
CCC1CCc2ncnc(N3CCOc4ccc(-c5cnc6nc(N)[nH]c6c5)cc4C3)c2C1 (stereo not shown) [Example 178, 6-[4-(6-ethyl-5,6,7,8-tetrahydroquinazolin-4-yl)-2,3,4,5-tetrahydro-1,4-benzoxazepin-7-yl]-1H-imidazo[4,5-b]pyridin-2-amine] | ≤ 10 nM
c1ccc2c(N3CCOc4ccc(-c5ccc6nc[nH]c6c5)cc4C3)ccnc2c1 [Example 126, 7-(1H-benzimidazol-6-yl)-4-quinolin-4-yl-2,3,4,5-tetrahydro-1,4-benzoxazepine] | 250 to 1000 nM
COc1c(OCCN(C)C)ccc2c(N3CCOc4ccc(-c5ccc6nc(C)[nH]c6c5)cc4C3)ncnc12 [Example 165, N,N-dimethyl-2-({4-[7-(2-methyl-1H-benzimidazol-6-yl)-2,3-dihydro-1,4-benzoxazepin-4(5H)-yl]-8-(methyloxy)quinazolin-7-yl}oxy)ethanamine] | ≥ 2000 nM
Cc1ncnc(N2CCOc3ccc(-c4ccc5sc(N)nc5c4)cc3C2)c1Cc1ccc(F)cc1 [Example 148, 5-(4-{5-[(4-fluorophenyl)methyl]-6-methylpyrimidin-4-yl}-2,3,4,5-tetrahydro-1,4-benzoxazepin-7-yl)-1,3-benzothiazol-2-amine] | ≤ 10 nM
CCCNC(=O)c1ccc(-c2ccc3c(c2)CN(c2ccnc4ccccc24)CCO3)cc1 [Example 244, N-propyl-4-(4-quinolin-4-yl-2,3,4,5-tetrahydro-1,4-benzoxazepin-7-yl)benzamide] | 50 to 250 nM

Source: US8648066B2 (Exelixis, Inc., priority 2009, dated 2014)
